Source: patent US6037351A, “Method of inhibiting hepatitis B virus” (priority 1996, dated 2000)

Assays:
MHBs (PreS2) antigen = assay: ELISA of MHBs (PreS2) antigen in unfractionated culture medium of 2.2.15 cells; format: cell-based, HBV
Description: FIG. 3D: Histogram of the area under the averaged peaks of the densitometric tracing of the gel in FIG. 3B. […] Equal volumes of the indicated samples were tested for HBV envelope antigens using the enzyme-linked imminosorbent assay (ELISA) method. Samples of unfractionated medium (FIGS. 4A, 4B and 4C) or partially purified virus (FIGS. 4D, 4E and 4F) from 3-day cultures were tested for HBV SHBs ("S) (FIGS. 4A and 4D), LHBs: "PreS1" (FIGS. 4B and 4E) or MHBs "PreS2" (FIGS. 4C and 4F) epitopes. Cultures were maintained in the indicated concentrations of NBDNJ, expressed in millimolar units and shown along the X axis.
Detection of HBV proteins by the Enzyme Linked Immunoabsorbant assay (ELISA).
Monoclonal antibodies used herein are well-known and are described by Heerman et al., J. Virol. 52, 396-402 (1984), for antibody to PreS1 (MA 18/7); Heerman et al., Intervirology 28: 14-21 (1987), for antibody to PreS2 (Q 19/10), see also Gerlich and Bruss, Molecular Biology of Hepatitis B Virus, ed. A. McLachlan, CRC Press, 109-144 (1992), and in Hepatitis B Vaccines in Clinical Practice, ed. R. W. Ellis, Marcel Dekker, Inc., pp. 41-82 (1992); and Heerman et al., in Viral Hepatitis and Liver Disease, ed. Zuckermann, A. R. Liss, 697-701 (1988), for antibody to S (C20-2).].
Samples were incubated in microtiter wells coated (overnight at 4° C.) with monoclonal antibodies specific for the LHBs, MHBs or SHBs epitopes and blocked with 1% BSA in PBS. After incubation with virus samples in for 1 hour (37° C.), plates were washed 4 times with PBS/0.1% Tween 20 non-ionic detergent.
Bound antigen was detected by incubation with peroxidase conjugated goat anti-HBs antibody (Behring) followed by development in orthophenylenediamine (0.33 mg/ml PBS-peroxide solution). Optical densities were read in a Behring plate reader. Tests on purified virus and total medium were conducted over a series of sample dilutions to insure proper quantification.
To distinguish between these possibilities, the amount and nature of envelope antigens in the culture medium was determined by both ELISA and Western analysis. […]

hepatitis B virus (HBV) = assay: Intracellular HBV DNA in 2.2.15 cells (Southern blot, densitometry); format: cell-based, HBV in human hepatoma HepG 2.2.15 cells; conditions: for increase in intracellular HBV copy abundance: adjusted for loading variation
Description: HepG 2.2.15 cells were grown for 6 days in the presence of the indicated concentration of NBDNJ with one change of medium. After the sixth day (seventh day in culture), cells and medium were collected. Autoradiograms of the viral DNA detected by hybridization of membranes to HBV probes are shown.
FIG. 2B: autoradiogram of a Southern blot of total intracellular DNA, digested to completion with EcoRI, from cells maintained in the absence of NBDNJ (lane 1) and in the presence of the following NBDNJ concentrations:
DNA was prepared from the pellets as in Sells and Chen, Proc. Natl. Acad. Sci. USA 84, 1005-1009 (1987). For Southern blots [Maniatis et al., Molecular cloning, a laboratory manual, Cold Spring Harbor Laboratory, Cold Spring Harbor, N.Y. (1982)], DNA was resolved by electrophoresis through 1.2% agarose, transferred to H+ bond (Amersham) filter paper and hybridized with radioactive ^32 P (Amersham) HBV probe (made by the random priming method described by the kit manufacturer, (Amersham), using pHBV as template [Foster et al., Proc. Natl. Acad. Sci. USA 88, 2888-2892 (1991)].
The NBDNJ-mediated decrease in virion associated HBV DNA in the medium could have been due to a decrease in viral DNA synthesis. Alternatively, it could have been due to a post synthetic event such as virion assembly, transport or egress from the cell. To distinguish between these possibilities, the amount of intracellular HBV specific DNA in untreated and NBDNJ treated 2.2.15 cells was compared.
Total cellular DNA was prepared from treated and untreated cells and digested to completion with EcoRI to linearize viral genomes. Near equal microgram amounts of digestion products (as determined by ethidium bromide staining and hybridization to a cell specific probe) were resolved by electrophoresis, Southern blotted and hybridized with the HBV specific probe (FIG. 2B). Unit length HBV genomes migrating as 3.2 kb bands are detected in DNA derived from untreated 2.2.15 cells (lane 1) and virions isolated from control culture medium (lane 5).

## CCCCN1C[C@H](O)[C@@H](O)[C@H](O)[C@H]1CO [NBDNJ, N-butyl-1,5-dideoxy-1,5-imino-D-glucitol]
MHBs (PreS2) antigen; 1000 μg/ml NBDNJ, 2.2.15 cells
  decrease in the amount of MHBs antigen in medium (in words): two-fold decrease
MHBs (PreS2) antigen; highest NBDNJ concentration, 4.5 mM or approximately 1000 μg/ml
  decrease in total amount of MHBs (PreS2) antigen in medium: approximately 2.5 fold
MHBs (PreS2) antigen; unfractionated medium, 2.2.15 cells
  total amount of MHBs (PreS2) antigen in medium (in words): modest, dose-dependentdecrease
Hepatitis B virus (HBV); NBDNJ 200 μg/ml
  increase in intracellular HBV copy abundance: 1.7 fold
Hepatitis B virus (HBV); NBDNJ 500 μg/ml
  increase in intracellular HBV copy abundance: 3.0 fold
Hepatitis B virus (HBV); NBDNJ 1000 μg/ml
  increase in intracellular HBV copy abundance: 5.1 fold
Hepatitis B virus (HBV); NBDNJ 200, 500, 1000 μg/ml
  amount of intracellular HBV DNA (in words): clear dose-dependent increase
